Values of other authors, collected in patent US9533050B2, “Vaginal ring including meloxicam and an agent for modulating the release of the active principle, which can be used as a continuous-use contraceptive in women” (LABORATORIOS ANDROMACO S.A., priority 2011, dated 2017).
Blank lines part the entries; values can stand above or below the compound they belong to.

How the values were obtained:
follicular rupture = conditions: 25 mg oral once daily for 9 days
ovulation = conditions: women
[1] = 15 mg tablets orally, older women

SMILES: CS(=O)(=O)c1ccc(C2=C(c3ccccc3)C(=O)OC2)cc1 [rofecoxib]
inhibition of ovulation (follicular rupture): not sufficient to inhibit ovulation | women with delay in the late follicular rupture (follicular rupture): 4 of the 6

SMILES: COc1ccc2c(c1)c(CC(=O)O)c(C)n2C(=O)c1ccc(Cl)cc1 [Indomethacin, indomethacin]
delay of ovulation (ovulation): 2 to 12 days

maximum plasma concentrations (7.5 mg orally, tablets): 1.05 µg/mL | time of maximum plasma concentration (7.5 mg orally, tablets): 4.9 h | plasma concentrations [1]: 3200 ng/mL | time of plasma concentration [1]: 6 h
SMILES: Cc1cnc(NC(=O)C2=C(O)c3ccccc3S(=O)(=O)N2C)s1 [meloxicam]
